Experimental data as given in PubChem BioAssay AID1963858 (Molecular Pharmacology Branch, DTP, NCI, 2024).

System: HOP-62 multicell spheroids with HUVEC/MSC, viability
Assay: Anticancer human tumor HOP-62 cell line growth inhibition [KRAS2];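 further: viability read after a week of compound exposure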;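 on viability, T/C: 100% = DMSO vehicle-treated spheroids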
Settings: for IC50: curve of first compound; for viability, T/C: stronger effect = lower value
Outline: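 KRAS-mutant tumor cells were grown as spheroids with HUVEC endothelial cells and human MSCs as stroma. Targeted agents were tested alone and with KRAS pathway inhibitors. Doses started at or near clinical Cmax, or 10 microM, descending half-log.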

[1] = second compound 0.1 µM, first compound 0.0316 µM
[2] = second compound 0.1 µM, first compound 0.1 µM
[3] = second compound 0.1 µM, first compound 0.316 µM
[4] = second compound 0.1 µM, first compound 1 µM
[5] = second compound 0.1 µM, first compound 3.16 µM
[6] = second compound 0.1 µM, first compound 10 µM
[7] = second compound 0.316 µM, first compound 0.0316 µM
[8] = second compound 0.316 µM, first compound 0.1 µM
[9] = second compound 0.316 µM, first compound 0.316 µM
[10] = second compound 0.316 µM, first compound 1 µM
[11] = second compound 0.316 µM, first compound 3.16 µM
[12] = second compound 0.316 µM, first compound 10 µM
[13] = second compound 1 µM, first compound 0.0316 µM
[14] = second compound 1 µM, first compound 0.1 µM
[15] = second compound 1 µM, first compound 0.316 µM
[16] = second compound 1 µM, first compound 1 µM
[17] = second compound 1 µM, first compound 3.16 µM
[18] = second compound 1 µM, first compound 10 µM
[19] = second compound 3.16 µM, first compound 0.0316 µM
[20] = second compound 3.16 µM, first compound 0.1 µM
[21] = second compound 3.16 µM, first compound 0.316 µM
[22] = second compound 3.16 µM, first compound 1 µM
[23] = second compound 3.16 µM, first compound 3.16 µM
[24] = second compound 3.16 µM, first compound 10 µM
[25] = second compound 10 µM, first compound 0.0316 µM
[26] = second compound 10 µM, first compound 0.1 µM
[27] = second compound 10 µM, first compound 0.316 µM
[28] = second compound 10 µM, first compound 1 µM
[29] = second compound 10 µM, first compound 3.16 µM
[30] = second compound 10 µM, first compound 10 µM

Structure (SMILES)	IC50 (second compound 0.1 µM) [µM]	IC50 (second compound 0.316 µM) [µM]	IC50 (second compound 1 µM) [µM]	IC50 (second compound 3.16 µM) [µM]	IC50 (second compound 10 µM) [µM]	viability, T/C [1] [%]	viability, T/C [2] [%]	viability, T/C [3] [%]	viability, T/C [4] [%]	viability, T/C [5] [%]	viability, T/C [6] [%]	viability, T/C [7] [%]	viability, T/C [8] [%]	viability, T/C [9] [%]	viability, T/C [10] [%]	viability, T/C [11] [%]	viability, T/C [12] [%]	viability, T/C [13] [%]	viability, T/C [14] [%]	viability, T/C [15] [%]	further results
COc1cc(Nc2ncc3c(n2)-c2ccc(Cl)cc2C(c2c(F)cccc2OC)=NC3)ccc1C(=O)O + COc1cc2nc(C)nc(NC(C)c3cc(N)cc(C(F)(F)F)c3)c2cc1OC1CCOC1	0.237	0.124	< 0.0316	< 0.0316	< 0.0316	58	61.3	43.1	39.1	25.6	19.1	53.7	50	44	41.8	23.5	16.1	44.8	42.4	35.7	viability, T/C [16]: 30.5%; viability, T/C [17]: 23.8%; viability, T/C [18]: 16.7%; viability, T/C [19]: 35.5%; viability, T/C [20]: 31.4%; viability, T/C [21]: 28.8%; viability, T/C [22]: 25.1%; viability, T/C [23]: 19.7%; viability, T/C [24]: 13.2%; viability, T/C [25]: 32.8%; viability, T/C [26]: 28.6%; viability, T/C [27]: 30.9%; viability, T/C [28]: 29.1%; viability, T/C [29]: 18%; viability, T/C [30]: 8.97%
COc1cc2nccc(Oc3ccc(NC(=O)C4(C(=O)Nc5ccc(F)cc5)CC4)cc3)c2cc1OC + COc1cc2nc(C)nc(NC(C)c3cc(N)cc(C(F)(F)F)c3)c2cc1OC1CCOC1	> 10	> 10	> 10	0.901	0.235	100	113	113	80.8	63.8	123	89.4	114	126	85.8	59.4	114	86.8	92.2	101	viability, T/C [16]: 55.9%; viability, T/C [17]: 47%; viability, T/C [18]: 97.5%; viability, T/C [19]: 71.8%; viability, T/C [20]: 94.9%; viability, T/C [21]: 81.6%; viability, T/C [22]: 46%; viability, T/C [23]: 0.59%; viability, T/C [24]: 94%; viability, T/C [25]: 54.9%; viability, T/C [26]: 49.1%; viability, T/C [27]: 49.3%; viability, T/C [28]: 24.5%; viability, T/C [29]: 0.58%; viability, T/C [30]: 73%
O=C(c1cc(Cc2n[nH]c(=O)c3ccccc23)ccc1F)N1CCN(C(=O)C2CC2)CC1 + COc1cc2nc(C)nc(NC(C)c3cc(N)cc(C(F)(F)F)c3)c2cc1OC1CCOC1	> 10	7.02	> 10	4.69	0.0974	99.5	102	106	102	85.1	52.7	90.8	85.6	83.3	92.3	67.9	42	102	98.2	93.4	viability, T/C [16]: 94.6%; viability, T/C [17]: 85.4%; viability, T/C [18]: 50.5%; viability, T/C [19]: 77%; viability, T/C [20]: 61.9%; viability, T/C [21]: 64%; viability, T/C [22]: 69.3%; viability, T/C [23]: 56.3%; viability, T/C [24]: 36.1%; viability, T/C [25]: 97.5%; viability, T/C [26]: 45.3%; viability, T/C [27]: 55.5%; viability, T/C [28]: 60.9%; viability, T/C [29]: 47%; viability, T/C [30]: 35.1%
